Read-outs that look alike come from different tables or passages of the source.
Tests used:
Endothelial lipase (EL) = Endothelial lipase (EL) (Homo sapiens (Human), UniProt Q9Y5X9); assay: EL assay: endothelial lipase activity with fluorescent substrate A10070 in DMPG vesicles; format: biochemical
Method in brief: (§1)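 Compounds were preincubated with enzyme for 30 min at 37° C before FRET-substrate vesicles (A10070 in DMPG, 0.11 mole fraction) were added. Reaction rates were obtained from the 300–900 sec slope of fluorescence at 490/530 nm.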

hepatic lipase (HL) = hepatic lipase (HL) (Homo sapiens (Human), UniProt P11150); assay: HL assay: hepatic lipase activity with fluorescent substrate A10070 in DMPG vesicles; format: biochemical
Sequence of hepatic lipase (HL) (P11150 23-499, species assumed): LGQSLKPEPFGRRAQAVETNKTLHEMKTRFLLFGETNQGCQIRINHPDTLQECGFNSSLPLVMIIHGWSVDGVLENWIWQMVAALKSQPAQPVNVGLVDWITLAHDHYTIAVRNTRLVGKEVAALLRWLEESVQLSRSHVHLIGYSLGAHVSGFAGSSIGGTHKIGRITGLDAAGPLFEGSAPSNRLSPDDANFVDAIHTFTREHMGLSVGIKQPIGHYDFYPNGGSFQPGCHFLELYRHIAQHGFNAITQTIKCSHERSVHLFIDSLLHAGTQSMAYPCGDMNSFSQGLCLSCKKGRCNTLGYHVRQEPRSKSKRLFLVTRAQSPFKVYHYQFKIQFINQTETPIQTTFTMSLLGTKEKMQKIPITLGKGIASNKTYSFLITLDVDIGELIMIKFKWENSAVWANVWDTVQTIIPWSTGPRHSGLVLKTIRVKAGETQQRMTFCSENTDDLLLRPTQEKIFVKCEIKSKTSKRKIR
Method in brief: as §1

[1] = EL from conditioned media of HT-1080 cells, 30 min incubation with compound at 37° C., A10070/DMPG vesicles
[2] = HL partially purified from conditioned media of COS cells, 30 min incubation with compound at 37° C., A10070/DMPG vesicles

Sequence of Endothelial lipase (EL) (Q9Y5X9 21-500): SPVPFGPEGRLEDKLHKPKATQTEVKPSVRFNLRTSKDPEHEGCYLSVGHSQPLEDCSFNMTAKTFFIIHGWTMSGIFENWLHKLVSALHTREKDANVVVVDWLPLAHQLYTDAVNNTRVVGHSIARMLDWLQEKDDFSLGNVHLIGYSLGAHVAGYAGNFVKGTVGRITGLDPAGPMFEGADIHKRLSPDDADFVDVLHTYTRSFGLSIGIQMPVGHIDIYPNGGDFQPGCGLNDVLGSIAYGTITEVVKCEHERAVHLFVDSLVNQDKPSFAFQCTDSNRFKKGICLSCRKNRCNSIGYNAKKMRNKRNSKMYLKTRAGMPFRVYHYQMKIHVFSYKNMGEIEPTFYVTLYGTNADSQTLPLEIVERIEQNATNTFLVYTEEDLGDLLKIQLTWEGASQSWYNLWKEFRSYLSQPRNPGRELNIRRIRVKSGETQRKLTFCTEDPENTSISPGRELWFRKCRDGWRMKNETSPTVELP

IC50 (Endothelial lipase (EL)) [nM]	IC50 (hepatic lipase (HL)) [nM]	IC50 (Endothelial lipase (EL); [1]) [nM]	IC50 (hepatic lipase (HL); [2]) [nM]	SMILES
3	96.3	–	–	CC(=O)Nc1ccc(-c2ccc3sc(C(C(=O)NCCS(N)(=O)=O)S(C)(=O)=O)nc3c2)cc1 (centres unmarked) [Example B371, 2-[5-(4-acetamidophenyl)-1,3-benzothiazol-2-yl]-2-methanesulfonyl-N-(2-sulfamoylethyl)acetamide]
2.5	124	–	–	CS(=O)(=O)C(C(=O)NCCS(N)(=O)=O)c1nc2cc(-c3ccc(F)nc3)ccc2s1 (centres unmarked) [Example B372, 2-[5-(6-fluoropyridin-3-yl)-1,3-benzothiazol-2-yl]-2-methanesulfonyl-N-(2-sulfamoylethyl)acetamide]
3.3	45.7	–	–	CS(=O)(=O)C(C(=O)NCCS(N)(=O)=O)c1nc2cc(-c3cnoc3)ccc2s1 (centres unmarked) [Example B373, 2-methanesulfonyl-2-[5-(1,2-oxazol-4-yl)-1,3-benzothiazol-2-yl]-N-(2-sulfamoylethyl)acetamide]
0.7	6.7	–	–	COCc1ccc(-c2ccc3sc(C(C(=O)NCCS(N)(=O)=O)S(C)(=O)=O)nc3c2)cc1 (centres unmarked) [Example B378, 2-methanesulfonyl-2-{5-[4-(methoxymethyl)phen-yl]-1,3-benzothiazol-2-yl}-N-(2-sulfamoylethyl)acetamide]
0.5	83.7	–	–	CC(=O)Nc1cccc(-c2ccc3sc(C(C(=O)NCCS(N)(=O)=O)S(C)(=O)=O)nc3c2)c1 (centres unmarked) [Example B379, 2-[5-(3-acetamidophenyl)-1,3-benzothiazol-2-yl]-2-methanesulfonyl-N-(2-sulfamoylethyl)acetamide]
2	18.5	–	–	CS(=O)(=O)C(C(=O)NCCS(N)(=O)=O)c1nc2cc(-c3cccc(F)n3)ccc2s1 (centres unmarked) [Example B380, 2-[5-(6-fluoropyridin-2-yl)-1,3-benzothiazol-2-yl]-2-methanesulfonyl-N-(2-sulfamoylethyl)acetamide]
1.1	40.2	–	–	CS(=O)(=O)C(C(=O)NCCS(N)(=O)=O)c1nc2cc(-c3ccncc3F)ccc2s1 (centres unmarked) [Example B381, 2-[5-(3-fluoropyridin-4-yl)-1,3-benzothiazol-2-yl]-2-methanesulfonyl-N-(2-sulfamoylethyl)acetamide]
0.7	13	–	–	CS(=O)(=O)C(C(=O)NCCS(N)(=O)=O)c1nc2cc(-c3cccnc3F)ccc2s1 (centres unmarked) [Example B383, 2-[5-(2-fluoropyridin-3-yl)-1,3-benzothiazol-2-yl]-2-methanesulfonyl-N-(2-sulfamoylethyl)acetamide]
8.2	828	–	–	Cn1nccc1-c1ccc2sc(C(C(=O)NCCS(N)(=O)=O)S(C)(=O)=O)nc2c1 (centres unmarked) [Example B384, 2-methanesulfonyl-2-[5-(1-methyl-1H-pyrazol-5-yl)-1,3-benzothiazol-2-yl]-N-(2-sulfamoylethyl)a-cetamide]
2	6300	–	–	CC(C)(O)Cn1ccc(-c2ccc3sc(C(C(=O)NCCS(N)(=O)=O)S(C)(=O)=O)nc3c2)cc1=O (centres unmarked) [Example B389, 2-{5-[1-(2-hydroxy-2-methylpropyl)-2-oxo-1,2-dihydropyridin-4-yl]-1,3-benzothiazol-2-yl}-2-methanesulfonyl-N-(2-sulfamoylethyl)acetamide]
3.5	10000	–	–	CC(C)(O)Cn1cc(-c2ccc3sc(C(C(=O)NCCS(N)(=O)=O)S(C)(=O)=O)nc3c2)ccc1=O (centres unmarked) [Example B390, 2-{5-[1-(2-hydroxy-2-methylpropyl)-6-oxo-1,6-dihydropyridin-3-yl]-1,3-benzothiazol-2-yl}-2-methanesulfonyl-N-(2-sulfamoylethyl)acetamide]
–	–	25	53.4	CC(C)(C)OC(=O)c1ccc2sc(C(C(=O)NCCS(N)(=O)=O)S(C)(=O)=O)nc2c1 (centres unmarked) [Example B391, tert-Butyl 2-(1-(methylsulfonyl)-2-oxo-2-((2-sulfamoylethyl)amino)ethyl)-1,3-benzothiazole-5-carboxylate]
–	–	3.1	92.7	CS(=O)(=O)C(C(=O)NCCS(N)(=O)=O)c1nc2cc(C(=O)O)ccc2s1 (centres unmarked) [Example B392, 2-(1-(Methylsulfonyl)-2-oxo-2-((2-sulfamoylethyl)amino)ethyl)benzo[d]thiazole-5-carboxylic acid]

Second part, the molecule before the results:

SMILES	IC50 (Endothelial lipase (EL)) [nM]	IC50 (hepatic lipase (HL)) [nM]	IC50 (Endothelial lipase (EL); [1]) [nM]	IC50 (hepatic lipase (HL); [2]) [nM]
CS(=O)(=O)C(C(=O)NCCS(N)(=O)=O)c1nc2cc(-c3ncccn3)ccc2s1 (centres unmarked) [Example B374, 2-methanesulfonyl-2-[5-(pyrimidin-2-yl)-1,3-benzothiazol-2-yl]-N-(2-sulfamoylethyl)acetamide]	0.8	23.7	–	–
NS(=O)(=O)CCNC(=O)C(c1nc2ccc(-c3ccnc(O)c3F)cc2s1)S(=O)(=O)CCC(F)(F)F (centres unmarked) [Example B375, 2-[6-(3-fluoro-2-hydroxy-pyridin-4-yl)-1,3-benzothiazol-2-yl]-N-(2-sulfamoylethyl)-2-(3,3,3-trifluoropropanesulfonyl)a-cetamide]	14	787	–	–
CC(C)(C)OC(=O)N1CC=C(c2ccc3sc(C(C(=O)NCCS(N)(=O)=O)S(C)(=O)=O)nc3c2)CC1 (centres unmarked) [Example B382, tert-butyl 4-(2-{methanesulfonyl[(2-sulfa-moylethyl)carbamoyl]meth-yl}-1,3-benzothiazol-5-yl)-1,2,3,6-tetrahydropyridine-1-carboxylate]	3.1	36.5	–	–
CS(=O)(=O)C(C(=O)NCCS(N)(=O)=O)c1nc2cc(-c3ccc(F)nc3F)ccc2s1 (centres unmarked) [Example B385, 2-[5-(2,6-difluoropyridin-3-yl)-1,3-benzothiazol-2-yl]-2-methanesulfonyl-N-(2-sulfamoylethyl)a-cetamide]	3.5	20.5	–	–
CC(C)(C)OC(=O)c1ccc(-c2ccc3nc(C(C(=O)N[C@@H]4CCNC4=O)S(=O)(=O)Cc4ccccc4)sc3c2)cc1 (stereo partly drawn) [Example B386, tert-butyl 4-[2-({[(3R)-2-oxopyrrolidin-3-yl]carbamoyl}(phenyl-methanesulfonyl)methyl)-1,3-benzothiazol-6-yl]benzoate]	17.1	14.3	–	–
CS(=O)(=O)C(C(=O)NCCS(N)(=O)=O)c1nc2cc(C(=O)N3CC(F)(F)C3)ccc2s1 (centres unmarked) [Example B393, 2-[5-(3,3-difluoroazetidine-1-carbonyl)-1,3-benzothiazol-2-yl]-2-methanesulfonyl-N-(2-sulfamoylethyl)acetamide]	50.3	5750	–	–
CS(=O)(=O)C(C(=O)NCCS(N)(=O)=O)c1nc2cc(C(=O)NCCc3ccc(F)cc3)ccc2s1 (centres unmarked) [Example B394, N-[2-(4-fluorophenyl)ethyl]-2-{methanesulfonyl[(2-sulfa-moylethyl)carbamoyl]meth-yl}-1,3-benzothiazole-5-carboxamide]	37.4	1600	–	–
CS(=O)(=O)C(C(=O)NCCS(N)(=O)=O)c1nc2ccc(-c3nnc(-c4ccc(F)cc4)o3)cc2s1 (centres unmarked) [Example B395, 2-(6-(5-(4-Fluorophenyl)-1,3,4-oxadiazol-2-yl)benzo[d]thiazol-2-yl)-2-(methylsulfonyl)-N-(2-sulfamoylethyl)acetamide]	–	–	148	275
CCNC(=O)CNC(=O)C(c1nc2ccc(-c3ccc(F)nc3)cc2s1)S(=O)(=O)CCOC (centres unmarked) [Example B397, N-[(ethylcarbamoyl)methyl]-2-[6-(6-fluoropyridin-3-yl)-1,3-benzothiazol-2-yl]-2-(2-methoxyethanesulfonyl)acetamide]	–	–	109	460

From patent US8987314B2, “Amide, urea or sulfone amide linked benzothiazole inhibitors of endothelial lipase” (Bristol-Myers Squibb Company, priority 2012, dated 2015)
